We go through one substance from US20200345733A1, “Microbicidal Pyrimidine or Triazine Containing Compounds” (Janssen Sciences Ireland UC, priority 2002, published 2020).

A short description of the data set: White rabbit vaginal irritation and toxicity study (10 days). The data set is classed as in vivo. To be noted: female rabbits, 10 days after application; animals with finding. How it is done: Gel formulations of the compound B at different concentrations were used to study the exclusion of any irritation in a Rabbit Vaingal Irritation test. 10 days after the application of the gel formulations onto 6 different rabbit groups, vaginal and cervical epithelium were carefully examined by a pathologist macroscopically and histologically. The following scores were determined.

For the substance Nonoxynol-9 [Nonoxynol-9, 4%], the “Cervical examination: Epithelial loss and atrophy, Marked” value is listed as 3; the “Cervical examination: Epithelial loss and atrophy, Slight” value amounted to 1; the “Cervical examination: Epithelial loss and atrophy, Total” value worked out at 4a; the “Cervical examination: Luminal Inflammatory cells, Present” value was 4. Moreover, the “Cervical examination: Luminal Inflammatory cells, Total” value is 4a; the “Vaginal examination: Epithelial inflammatory infiltrate, Minimal” value was 3; the “Vaginal examination: Epithelial inflammatory infiltrate, Slight” value is given as 2; the “Vaginal examination: Epithelial inflammatory infiltrate, Total” value came out at 5a. Also, the “Vaginal examination: Epithelial loss and atrophy, Marked” value was 2; the “Vaginal examination: Epithelial loss and atrophy, Severe” value was determined as 3; the “Vaginal examination: Epithelial loss and atrophy, Total” value came out at 5b.
